# Tests used:
# [1] = test system: human whole blood; assay: human whole blood assay verifying inhibitory activity of the inhibitor samples; format: cell-based
# [2] = test system: PBMCs from asthma subjects; assay: HG-U133A transcriptional profiling of allergen-stimulated PBMCs of asthma subjects (AOS), with and without cPLA2 inhibitor, 6 days culture; clustering and Ingenuity pathway analysis; format: cell-based, human
# Description: (§1) PBMCs were stimulated in vitro with a cocktail containing 4 different allergens from house dust mite, ragweed and cat. Recombinant allergens, Der p1, Der f2, Fel d1 (Indoor Biotech, Charlottesville, Va.) and natural ragweed allergen (Allergy Lab, Seattle, Wash.) were selected and screened for endotoxin contamination (LAL Endotoxin Test, Catalog #HIT302, sensitivity, 0.0001 Eu/ml, Cell Sciences, Canton, Mass.). The sensitivity of the subjects was unknown but the allergens were chosen based on the estimate that 80% of allergic individuals are believed to react to one or more of these allergens. Culture medium contained RPMI-1640 (Sigma) with 10% heat inactivated FCS (Sigma St. Louis, Mo.) and 100 unit/mL Penicillin and […] Streptomycin and 0.292 mg/mL Glutamine (GIBCO RL Invitrogen, Carlsbad, Calif.). The final allergen cocktail concentrations in culture medium were: Der p1 and Der f2 (dust mite), 1 mg/ml; Fel d1 (cat), 1.25 mg/ml; ragweed, 125 mg/ml. The total level of endotoxin contamination in culture medium was 0.057 Eu/ml. The cPLA2 inhibitor 4-{3-[1-benzhydryl-5-chloro-2-(2-{[(2,6-dimethylbenzyl)sulfonyl]amino}ethyl)-1H-indol-3-yl]propyl}benzoic acid was used at a concentration of 0.3 μM/ml. Zileuton, a 5-lipoxygenase inhibitor, was added at a concentration of 5 μM. The inhibitory activity of both the cPLA2 inhibitor and Zileuton samples were verified in a human whole blood assay. After 6 days in culture approximately 200 μL of supernatant was removed using an 8-channel pipettor without disturbing the cell pellet and placed into a collection plate for cytokine ELISA assays. To the remaining cell pellet 100 μL of RLT lysis buffer containing 1% beta-mercaptoethanol was added and snap frozen for RNA purification.
# (§2) RNA was purified using QIA shredders and Rneasy mini kits (Qiagen, Valencia, Calif.). PBMC pellets frozen in RLT lysis buffer containing 1% β-mercaptoethanol were thawed and processed for total RNA isolation using the QIA shredder and RNeasy mini kit. A phenol:chloroform extraction was then performed, and the RNA was repurified using the RNeasy mini kit reagents. Eluted RNA was quantified using a Spectramax96 well plate UV reader (Molecular Devices, Sunnyvale, Calif., USA) monitoring A260/280 OD values. The quality of each RNA sample was assessed by capillary electrophoresis alongside an RNA molecular weight ladder on the Agilent 2100 bioanalyzer (Agilent Technologies, Palo Alto, Calif., USA). RNA samples were assigned quality values of intact (distinct 18S and 28S bands); partially degraded (discernible 18S and 28S bands with presence of low molecular weight bands) or completely degraded (no discernible 18S and 28S bands).
# (§3) Labeled targets for oligonucleotide arrays were prepared using a modification of the procedure described by Lockhart et al. (Lockhart (1996) Nat. Biotechnol. 14:1675-80). Labeled targets were hybridized to the HG-U133A Affymetrix GeneChip Array as described in the Affymetrix technical manual. Eleven biotinylated control transcripts ranging in abundance from 3 parts per million (ppm) to 100 ppm were spiked into each sample to function as a standard curve (Hill (2001) Genome Biol. 2:RESEARCH0055). GeneChip MAS 5.0 software was used to evaluate the hybridization intensity, compute the signal value for each probe set and make an absent/present call.
# (§4) GeneChips were required to pass the pre-set quality control criteria that the RNA quality metric required a 5′:3′ ratio. Two asthma subjects were excluded from the study due to failure to meet the RNA quality metric and 2 GeneChips from the group treated with cPLA2a inhibitor were excluded for the same reason. The signal value for each probe set was converted into a frequency value representative of the number of transcripts present in 10^6 transcripts by reference to the standard curve (Hill (2001) Genome Biol. 2:RESEARCH0055). […]
# [3] = test system: PBMCs from healthy volunteers; assay: HG-U133A transcriptional profiling of allergen-stimulated PBMCs of healthy volunteers (HV/WHV), with and without cPLA2 inhibitor, 6 days culture; format: cell-based, human
# Description: as §1, §2, §3, §4
# [4] = test system: PBMCs from asthma subjects; assay: HG-U133A baseline gene expression in PBMCs of asthma subjects (AOS), cPLA2 inhibitor in the absence of allergen (no AG); format: cell-based, human
# Description: PBMCs were stimulated in vitro with a cocktail containing 4 different allergens from house dust mite, ragweed and cat. Recombinant allergens, Der p1, Der f2, Fel d1 (Indoor Biotech, Charlottesville, Va.) and natural ragweed allergen (Allergy Lab, Seattle, Wash.) were selected and screened for endotoxin contamination (LAL Endotoxin Test, Catalog #HIT302, sensitivity, 0.0001 Eu/ml, Cell Sciences, Canton, Mass.). The sensitivity of the subjects was unknown but the allergens were chosen based on the estimate that 80% of allergic individuals are believed to react to one or more of these allergens. Culture medium contained RPMI-1640 (Sigma) with 10% heat inactivated FCS (Sigma St. Louis, Mo.) and 100 unit/mL Penicillin and […] Streptomycin and 0.292 mg/mL Glutamine (GIBCO RL Invitrogen, Carlsbad, Calif.). The final allergen cocktail concentrations in culture medium were: Der p1 and Der f2 (dust mite), 1 mg/ml; Fel d1 (cat), 1.25 mg/ml; ragweed, 125 mg/ml. […]
# RNA was purified using QIA shredders and Rneasy mini kits (Qiagen, Valencia, Calif.). […] Eluted RNA was quantified using a Spectramax96 well plate UV reader (Molecular Devices, Sunnyvale, Calif., USA) monitoring A260/280 OD values. The quality of each RNA sample was assessed by capillary electrophoresis alongside an RNA molecular weight ladder on the Agilent 2100 bioanalyzer (Agilent Technologies, Palo Alto, Calif., USA). […]
# [5] = gene C10ORF3, probeset 218542_at
# [6] = gene CHIT1, probeset 208168_s_at
# [7] = gene DAB2, probeset 201279_s_at
# [8] = gene DAB2, probeset 210757_x_at
# [9] = gene DUSP4, probeset 204015_s_at
# [10] = gene FABP3, probeset 205738_s_at
# [11] = gene FLJ23311, probeset 219990_at
# [12] = gene HS3ST2, probeset 219697_at
# [13] = gene PAPSS2, probeset 203060_s_at
# [14] = gene PLEKHB2, probeset 201411_s_at
# [15] = gene RACGAP1, probeset 222077_s_at
# [16] = gene RUVBL1, probeset 201614_s_at
# [17] = gene SLC36A1, probeset 213119_at
# [18] = gene SLC38A6, probeset 214830_at
# [19] = gene SLC39A14, probeset 212110_at
# [20] = gene SLCO2B1, probeset 203472_s_at
# [21] = gene SLCO2B1, probeset 203473_at
# [22] = gene SMC2L1, probeset 204240_s_at
# [23] = gene TRIP13, probeset 204033_at
# [24] = gene UNK_AI859865, probeset 222036_s_at
# [25] = gene UNK_BE966236, probeset 201890_at
structure (smiles),measurement,setting,value
"Cc1cccc(C)c1CS(=O)(=O)NCCc1c(CCCc2ccc(C(=O)O)cc2)c2cc(Cl)ccc2n1C(c1ccccc1)c1ccccc1 [cPLA2 inhibitor, 4-{3-[1-benzhydryl-5-chloro-2-(2-{[(2,6-dimethylbenzyl)sulfonyl]amino}ethyl)-1H-indol-3-yl]propyl}benzoic acid]",inhibitory activity in a human whole blood assay,[1],verified
same,"all T cell responsive and cell cycle genes in the pathway (Network 1, FIG. 3A/3C)",[2]; allergen + inhibitor,significantly changed towards the levels in the healthy subject group
same,"allergen-induced increase in expression of T cell genes ZAP70, CD28, CD3D",[2]; allergen + inhibitor,abolished
same,"genes initially down regulated in asthma samples in the presence of allergen, such as sialoadhesin (SN), CD84, TIMP3",[2]; allergen + inhibitor,up-regulated in the presence of inhibition
same,"genes up-regulated in asthma samples in response to allergen, such as ZAP70, LCK, MCM2",[2]; allergen + inhibitor,reduced to the levels seen in the allergen treated healthy controls
same,"other immune related genes: CD28, CD3D, IL-21R, HMGB1",[2]; allergen + inhibitor,downregulated
same,every single probe in Network 1 in the asthmatic population,"[2]; allergen + inhibitor, FIG. 3C",altered level of expression
same,asthma specific gene expression (167 allergen-asthma specific probesets) in the presence of the inhibitor,"[2]; compared to the allergen treatment alone, 0.3 μM/ml",altered
same,Fold Change AOS Allergen vs. cPLA2 inhibitor,[2]; [5],−1.255
same,Fold Change AOS Allergen vs. cPLA2 inhibitor,"[2]; gene CDC2, probeset 203213_at",−1.163
same,Fold Change AOS Allergen vs. cPLA2 inhibitor,[2]; [6],2.803
same,Fold Change AOS Allergen vs. cPLA2 inhibitor,[2]; [7],2.442
same,Fold Change AOS Allergen vs. cPLA2 inhibitor,[2]; [8],2.524
same,Fold Change AOS Allergen vs. cPLA2 inhibitor,"[2]; gene DUSP4, probeset 204014_at",−1.393
same,Fold Change AOS Allergen vs. cPLA2 inhibitor,[2]; [9],−1.344
same,Fold Change AOS Allergen vs. cPLA2 inhibitor,[2]; [10],2.574
same,Fold Change AOS Allergen vs. cPLA2 inhibitor,[2]; [11],−1.362
same,Fold Change AOS Allergen vs. cPLA2 inhibitor,"[2]; gene GM2A, probeset 33646_g_at",2.499
same,Fold Change AOS Allergen vs. cPLA2 inhibitor,"[2]; gene GM2A, probeset 209727_at",2.415
same,Fold Change AOS Allergen vs. cPLA2 inhibitor,[2]; [12],4.363
same,Fold Change AOS Allergen vs. cPLA2 inhibitor,"[2]; gene ME1, probeset 204059_s_at",2.986
same,Fold Change AOS Allergen vs. cPLA2 inhibitor,"[2]; gene MELK, probeset 204825_at",−1.228
same,Fold Change AOS Allergen vs. cPLA2 inhibitor,"[2]; gene OIP5, probeset 213599_at",−1.141
same,Fold Change AOS Allergen vs. cPLA2 inhibitor,[2]; [13],2.162
same,Fold Change AOS Allergen vs. cPLA2 inhibitor,[2]; [14],2.51
same,Fold Change AOS Allergen vs. cPLA2 inhibitor,"[2]; gene POLG, probeset 213007_at",−1.163
same,Fold Change AOS Allergen vs. cPLA2 inhibitor,[2]; [15],−1.167
same,Fold Change AOS Allergen vs. cPLA2 inhibitor,[2]; [16],−1.215
same,Fold Change AOS Allergen vs. cPLA2 inhibitor,[2]; [17],2.385
same,Fold Change AOS Allergen vs. cPLA2 inhibitor,[2]; [18],2.908
same,Fold Change AOS Allergen vs. cPLA2 inhibitor,[2]; [19],−1.323
same,Fold Change AOS Allergen vs. cPLA2 inhibitor,[2]; [20],2.698
same,Fold Change AOS Allergen vs. cPLA2 inhibitor,[2]; [21],2.609
same,Fold Change AOS Allergen vs. cPLA2 inhibitor,[2]; [22],−1.245
same,Fold Change AOS Allergen vs. cPLA2 inhibitor,"[2]; gene SN, probeset 219519_s_at",4.378
same,Fold Change AOS Allergen vs. cPLA2 inhibitor,[2]; [23],−1.358
same,Fold Change AOS Allergen vs. cPLA2 inhibitor,[2]; [24],−1.203
same,Fold Change AOS Allergen vs. cPLA2 inhibitor,[2]; [25],−1.167
same,genes down regulated in response to allergen in Network 1 in the healthy population,"[3]; allergen + inhibitor, data not shown",brought up to non-allergen-stimulated background levels
same,Fold Change WHV Allergen vs. cPLA2 inhibitor,[3]; [5],−1.335
same,Fold Change WHV Allergen vs. cPLA2 inhibitor,"[3]; gene CDC2, probeset 203213_at",−1.258
same,Fold Change WHV Allergen vs. cPLA2 inhibitor,[3]; [6],2.013
same,Fold Change WHV Allergen vs. cPLA2 inhibitor,[3]; [7],1.413
same,Fold Change WHV Allergen vs. cPLA2 inhibitor,[3]; [8],1.326
same,Fold Change WHV Allergen vs. cPLA2 inhibitor,"[3]; gene DUSP4, probeset 204014_at",−1.388
same,Fold Change WHV Allergen vs. cPLA2 inhibitor,[3]; [9],−1.157
same,Fold Change WHV Allergen vs. cPLA2 inhibitor,[3]; [10],−1.037
same,Fold Change WHV Allergen vs. cPLA2 inhibitor,[3]; [11],1.042
same,Fold Change WHV Allergen vs. cPLA2 inhibitor,"[3]; gene GM2A, probeset 33646_g_at",1.344
same,Fold Change WHV Allergen vs. cPLA2 inhibitor,"[3]; gene GM2A, probeset 209727_at",1.211
same,Fold Change WHV Allergen vs. cPLA2 inhibitor,[3]; [12],1.288
same,Fold Change WHV Allergen vs. cPLA2 inhibitor,"[3]; gene ME1, probeset 204059_s_at",1.518
same,Fold Change WHV Allergen vs. cPLA2 inhibitor,"[3]; gene MELK, probeset 204825_at",−1.213
same,Fold Change WHV Allergen vs. cPLA2 inhibitor,"[3]; gene OIP5, probeset 213599_at",−1.067
same,Fold Change WHV Allergen vs. cPLA2 inhibitor,[3]; [13],1.13
same,Fold Change WHV Allergen vs. cPLA2 inhibitor,[3]; [14],1.277
same,Fold Change WHV Allergen vs. cPLA2 inhibitor,"[3]; gene POLG, probeset 213007_at",−1.337
same,Fold Change WHV Allergen vs. cPLA2 inhibitor,[3]; [15],−1.108
same,Fold Change WHV Allergen vs. cPLA2 inhibitor,[3]; [16],−1.144
same,Fold Change WHV Allergen vs. cPLA2 inhibitor,[3]; [17],1.279
same,Fold Change WHV Allergen vs. cPLA2 inhibitor,[3]; [18],1.206
same,Fold Change WHV Allergen vs. cPLA2 inhibitor,[3]; [19],−1.568
same,Fold Change WHV Allergen vs. cPLA2 inhibitor,[3]; [20],1.211
same,Fold Change WHV Allergen vs. cPLA2 inhibitor,[3]; [21],1.237
same,Fold Change WHV Allergen vs. cPLA2 inhibitor,[3]; [22],−1.27
same,Fold Change WHV Allergen vs. cPLA2 inhibitor,"[3]; gene SN, probeset 219519_s_at",1.618
same,Fold Change WHV Allergen vs. cPLA2 inhibitor,[3]; [23],−1.317
same,Fold Change WHV Allergen vs. cPLA2 inhibitor,[3]; [24],−1.29
same,Fold Change WHV Allergen vs. cPLA2 inhibitor,[3]; [25],−1.202
same,"effect on gene expression in the absence of allergen stimulation, asthmatic population",[4],does not affect gene expression

# — patent US20090155784A1, “ASSESSMENT OF ASTHMA AND ALLERGEN-DEPENDENT GENE EXPRESSION” (Wyeth, priority 2007, published 2009)
